Test results: patent US9856298B2 (priority 2011, dated 2018)
≈ marks a conversion by molar mass, not a printed value. Square brackets hold non-standard residues; d marks the D form. Primed or numbered codes have the meaning given here. Side chains are listed from the residue outwards. Ends that are not written are not given here. Peptide text beside a SMILES is read from it. * marks the point of attachment. Orn(α-tetramethylguanidino) = CN(C)C(=N[C@@H](CCCN)C(=O)*)N(C)C; Guan″ = guanidino group at the N-terminus, N=C(N)*; sPEG750 = PEG of 750 linked via acid group; Orn = NCCC[C@H](N)C(=O)O

Legend:
[1] = test system: Escherichia coli strain BL21AI; assay: Minimum inhibitory concentration in TSB in the presence of 25% mouse serum; format: cell-based; details: E. coli BL21AI, TSB with 25% mouse serum, 20 hours at 37° C.
Protocol: To that end, the peptides were dissolved in water and diluted in a two-fold dilution series with 1% aqueous soybean medium (TSB) in sterile 96-well plates (Greiner Bio-One GmbH) from 128 μg/ml in twelve dilution steps to 62.5 ng/ml. Overnight cultures of Escherichia coli strain BL21AI were adjusted with 1% TSB to about […] colony forming units per ml. In each case 50 μl of peptide solution per well were then mixed with in each case 50 μl of the bacteria solution, in order to achieve a starting concentration of 4×10^5 bacteria per well. After incubation for 20 hours at 37° C., the absorption at 595 nm was determined (microplate reader, TECAN Trading AG).
In addition, the antibacterial activity was also determined in the presence of 25% mouse serum. To that end, the MIC values were determined as described above, but 25 μl of mouse serum were also added to each well before the incubation (25% final concentration).

[2] = test system: Escherichia coli strain BL21AI; assay: Minimum inhibitory concentration in 1% TSB; format: cell-based; details: E. coli BL21AI, 1% TSB, 20 hours at 37° C.
Summary of the method: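 Peptides in twofold dilution series in 1% TSB, 128 μg/ml down to 62.5 ng/ml, mixed 1:1 with bacteria for 4×10^5 bacteria per well. Incubated 20 h at 37° C; growth read as absorbance at 595 nm.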

[3] = Serum stability / release of peptide in 25% aqueous mouse serum (RP-HPLC, MALDI-MS); details: 25% (v/v) aqueous mouse serum
Protocol: (§1) 30 μl of a 1 mg/ml peptide solution were diluted with 120 μl of water and, after addition of 50 of serum, incubated at 37° C. for 0 hours, 0.5 hour, 1 hour, 2 hours or 4 hours. Alternatively, the peptide derivatives having a starting concentration of 3 mg/ml were diluted with serum to a final concentration of 15 μg/ml. According to the stability of the peptides, the samples were analysed at the times mentioned above or after 0 hours, 4 hours and 6 hours. The serum proteins were precipitated by addition of 50 μl of 15% TCA, and the supernatant was neutralised with 25 μl of 1 mol/l NaOH. The samples were made up to 250 μl with 5% B, 230 μl of the solution were transferred into a HPLC vial, and 220 μl were injected.
(§2) RP-HPLC analysis was carried out with a linear acetonitrile gradient (Biosolve BV, Valkenswaard, Netherlands) in the presence of 0.1% trifluoroacetic acid (TFA, UV grade, Fluka Chemie GmbH, Buchs, Switzerland) as ion-pair reagent. The fractions were co-crystallised with α-cyanohydroxycinnamic acid (Bruker Daltonik GmbH; Bremen, Germany) as matrix (4 mg/ml in 60% acetonitrile in 0.1% aqueous TFA) and analysed with a tandem mass spectrometer (MALDI-TOF/TOF-MS, 4700 Proteomics Analyzer; Applied Biosystems GmbH, Weiterstadt, Germany) in positive-ion reflector mode. The amount of intact peptides and their degradation products or metabolites could thus be identified and quantified at the individual times. 25% aqueous mouse serum, which was analysed in parallel for the same time intervals, was used as control.

[4] = mammalian serum (25%); cited from earlier work
[5] = mouse
Protocol: as §1, §2

Row | Compound | MIC in TSB/mouse serum [1] | MIC in TSB [2] | half-life at 150 µg/ml [3] | Time to degradation in mammalian serum [4] | Half-life (t1/2) in 25% serum [5]
1 | CC[C@H](C)[C@H](NC(=O)[C@H](Cc1ccc(O)cc1)NC(=O)[C@@H](NC(=O)[C@@H]1CCCN1C(=O)[C@H](CCCNC(=N)N)NC(=O)[C@H](CC(N)=O)NC(=O)[C@H](CC(N)=O)NC(=O)[C@H](CCCN)N=C(N(C)C)N(C)C)C(C)C)C(=O)N1CCC[C@H]1C(=O)N[C@@H](CCCNC(=N)N)C(=O)N1CCC[C@H]1C(=O)N[C@@H](CCCNC(=N)N)C(=O)N1CCC[C@H]1C(=O)N1CCC[C@H]1C(=O)N[C@@H](Cc1c[nH]cn1)C(=O)N1CCC[C@H]1C(=O)N[C@@H](CCCNC(=N)N)C(=O)N[C@@H](CC(C)C)C(=O)O [Api 137, Guan-ONNRPVYIPRPRPPHPRL-OH, reference compound] ({Orn(α-tetramethylguanidino)}-NNRPVYIPRPRPPHPRL-OH) | 0.23 µM | 0.46 µM (≈ 1.05 µg/mL) | > 6 h |  | 
2 | GKPRPYSPRPTSHPRPIRV [drosocin] |  |  |  | degraded within an hour | 
3 | Guan-O(sPEG^750-GARSG)NNRPVYIPRPRPPHPRL-OH ({Guan″}-[Orn]NNRPVYIPRPRPPHPRL-OH; not fully specified (residue 1)) [Api 137 (sPEG^750-GARSG)] |  | 1.1 µM |  |  | 1 h
4 | Guan-O(sPEG^750-GRSG)NNRPVYIPRPRPPHPRL-OH ({Guan″}-[Orn]([Gly-Ser-Arg-Gly-sPEG750])NNRPVYIPRPRPPHPRL-OH) [Api 137 (sPEG^750-GRSG)] |  |  |  |  | 2 h
